Test results reported in patent publication US6737383B1, “Herbicidal oxadiazolidines” (priority 1999, dated 2004).

Columns and labels:
morningglory = assay: Test B pre/postemergence morningglory; assay type: in vivo, Ipomoea hederacea
Method in brief: (§1)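 Test chemicals in a non-phytotoxic solvent mixture with surfactant were sprayed preemergence onto planted seeds and postemergence onto plants 2 to 18 cm tall (1- to 4-leaf stage). After twelve to sixteen days in a greenhouse, injury was visually rated against untreated controls from 0 (no effect) to 10 (complete control).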

wild oat = assay: Test B pre/postemergence wild oat; assay type: in vivo, Avena fatua
Method in brief: as §1

smallflower flatsedge = assay: Test B flood test smallflower flatsedge; assay type: in vivo, Cyperus difformis
Method in brief: (§2)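 Each value is a visual injury score relative to controls, with 10 meaning complete control and 0 no effect. Evaluation took place twelve to sixteen days after the 2-leaf-stage plants were treated and kept in the greenhouse.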

rice = assay: Test B flood test rice; assay type: in vivo, Oryza sativa
Method in brief: as §2

bamyardgrass = assay: Test B flood test barnyardgrass; assay type: in vivo, Echinochloa crus-galli
Method in brief: as §2

surinam grass = assay: Test B pre/postemergence surinam grass; assay type: in vivo, Brachiaria decumbens
Method in brief: as §1

bedstraw = assay: Test B pre/postemergence bedstraw; assay type: in vivo, Galium aparine
Method in brief: as §1

purple nutsedge = assay: Test B pre/postemergence purple nutsedge; assay type: in vivo, Cyperus rotundus
Method in brief: as §1

cocklebur = assay: Test B pre/postemergence cocklebur; assay type: in vivo, Xanthium strumarium
Method in brief: as §1

sugar beet = assay: Test B pre/postemergence sugar beet; assay type: in vivo, Beta vulgaris
Method in brief: as §1

soybean = assay: Test B pre/postemergence soybean; assay type: in vivo, Glycine max
Method in brief: as §1

velvetleaf = assay: Test B pre/postemergence velvetleaf; assay type: in vivo, Abutilon theophrasti
Method in brief: as §1

blackgrass = assay: Test B pre/postemergence blackgrass; assay type: in vivo, Alopecurus myosuroides
Method in brief: as §1

corn = assay: Test B pre/postemergence corn; assay type: in vivo, Zea mays
Method in brief: as §1

rape = assay: Test B pre/postemergence rape; assay type: in vivo, Brassica napus
Method in brief: as §1

pigweed = assay: Test B pre/postemergence pigweed; assay type: in vivo, Amaranthus retroflexus
Method in brief: as §1

[1] = Postemergence, Rate 125 g/ha, scale 0 to 10, 0 is no effect, 10 is complete control
[2] = Preemergence, Rate 62 g/ha, scale of 0 to 10 where 0 is no effect and 10 is complete control
[3] = Preemergence, Rate 250 g/ha, scale of 0 to 10 where 0 is no effect and 10 is complete control
[4] = Preemergence, Rate 500 g/ha, scale of 0 to 10 where 0 is no effect and 10 is complete control
[5] = Rate 62 g/ha, Postemergence, scale 0 to 10 (0 no effect, 10 complete control)
[6] = Rate 500 g/ha, Postemergence, scale 0 to 10, 0 no effect, 10 complete control
[7] = Rate 62 g/ha, headed Pre-emergence (flood test species), scale 0 to 10 (0 no effect, 10 complete control)
[8] = Rate 125 g/ha, Pre-emergence, flood test species, scale 0 to 10 where 0 is no effect and 10 is complete control
[9] = Rate 250 g/ha, Pre-emergence, flood-test species, scale 0 to 10, 0 is no effect, 10 is complete control
[10] = Rate 500 g/ha, Pre-emergence, flood test species, scale 0 to 10 (0 no effect, 10 complete control)
[11] = Rate 250 g/ha, Postemergence, scale of 0 to 10 where 0 is no effect and 10 is complete control

With `Cc1c(-n2c(=O)on(C(=O)N(c3ccc(F)cc3F)C(C)C)c2=O)ccc2ccccc12` [Compound 337] the “Plant response rating, Morningglory” value (morningglory; [1]) was 0, the “Morningglory plant response rating” value (morningglory; [2]) was 0 and the “Morningglory plant response rating (0 to 10 scale)” value (morningglory; Preemergence, Rate 125 g/ha) was 0. The “Morningglory plant response rating” value (morningglory; [3]) was 0, the “Morningglory plant response rating” value (morningglory; [4]) was 0 and the “Morningglory plant response rating” value (morningglory; [5]) was 0. For the same molecule, the “Plant response rating, Morningglory” value (morningglory; [6]) was 0, the “Plant response rating, Wild oats” value (wild oat; [1]) was 0 and the “Wild oats plant response rating” value (wild oat; [2]) was 0. The “Wild oats plant response rating (0 to 10 scale)” value (wild oat; Preemergence, Rate 125 g/ha) was 0, the “Wild oats plant response rating” value (wild oat; [3]) was 0 and the “Wild oats plant response rating” value (wild oat; [4]) was 0. For the same molecule, the “Wild oats plant response rating” value (wild oat; [5]) was 0, the “Plant response rating, Wild oats” value (wild oat; [6]) was 0 and the “S. Flatsedge plant response rating” value (smallflower flatsedge; [7]) was 0. For the same molecule, the “S. Flatsedge plant response rating” value (smallflower flatsedge; [8]) was 0, the “S. Flatsedge plant response rating” value (smallflower flatsedge; [9]) was 0 and the “S. Flatsedge plant response rating” value (smallflower flatsedge; [10]) was 0. The “Rice plant response rating” value (rice; [7]) was 0, the “Rice plant response rating” value (rice; [8]) was 0 and the “Rice plant response rating” value (rice; [9]) was 0. For the same molecule, the “Rice plant response rating” value (rice; [10]) was 0, the “Barnyardgrass plant response rating” value (bamyardgrass; [7]) was 0 and the “Barnyardgrass plant response rating” value (bamyardgrass; [8]) was 0. For the same molecule, the “Barnyardgrass plant response rating” value (bamyardgrass; [9]) was 0, the “Barnyardgrass plant response rating” value (bamyardgrass; [10]) was 5 and the “Plant response rating, B. signalgrass” value (surinam grass; [1]) was 0. For the same molecule, the “B. signalgrass plant response rating” value (surinam grass; [2]) was 0, the “B. signalgrass plant response rating (0 to 10 scale, 0 is no effect, 10 is complete control)” value (surinam grass; Preemergence, Rate 125 g/ha) was 0 and the “B. signalgrass plant response rating” value (surinam grass; [3]) was 0. For the same molecule, the “B. signalgrass plant response rating” value (surinam grass; [4]) was 0, the “B. signalgrass plant response rating” value (surinam grass; [5]) was 0 and the “Plant response rating, B. signalgrass” value (surinam grass; [11]) was 0. The “Plant response rating, B. signalgrass” value (surinam grass; [6]) was 0, the “Plant response rating, Bedstraw” value (bedstraw; [1]) was 1 and the “Bedstraw plant response rating” value (bedstraw; [2]) was 0. The “Bedstraw plant response rating (0 to 10 scale)” value (bedstraw; Preemergence, Rate 125 g/ha) was 0, the “Bedstraw plant response rating” value (bedstraw; [3]) was 0 and the “Bedstraw plant response rating” value (bedstraw; [4]) was 0. For the same molecule, the “Bedstraw plant response rating” value (bedstraw; [5]) was 0, the “Plant response rating, Bedstraw” value (bedstraw; [11]) was 2 and the “Plant response rating, Bedstraw” value (bedstraw; [6]) was 4. For the same molecule, the “Plant response rating, Nutsedge” value (purple nutsedge; [1]) was 0, the “Nutsedge plant response rating” value (purple nutsedge; [2]) was 0 and the “Nutsedge plant response rating (0 to 10 scale)” value (purple nutsedge; Preemergence, Rate 125 g/ha) was 0. For the same molecule, the “Nutsedge plant response rating” value (purple nutsedge; [3]) was 0, the “Nutsedge plant response rating” value (purple nutsedge; [4]) was 0 and the “Nutsedge plant response rating” value (purple nutsedge; [5]) was 0. The “Plant response rating, Nutsedge” value (purple nutsedge; [6]) was 0, the “Plant response rating, Cocklebur” value (cocklebur; [1]) was 0 and the “Cocklebur plant response rating” value (cocklebur; [2]) was 0. For the same molecule, the “Cocklebur plant response rating (0 to 10 scale)” value (cocklebur; Preemergence, Rate 125 g/ha) was 0, the “Cocklebur plant response rating” value (cocklebur; [3]) was 0 and the “Cocklebur plant response rating” value (cocklebur; [4]) was 0. For the same molecule, the “Cocklebur plant response rating” value (cocklebur; [5]) was 0, the “Plant response rating, Sugarbeets” value (sugar beet; [1]) was 0 and the “Sugarbeets plant response rating” value (sugar beet; [2]) was 0. The “Sugarbeets plant response rating (0 to 10 scale)” value (sugar beet; Preemergence, Rate 125 g/ha) was 0, the “Sugarbeets plant response rating” value (sugar beet; [3]) was 0 and the “Sugarbeets plant response rating” value (sugar beet; [4]) was 0. The “Sugarbeets plant response rating” value (sugar beet; [5]) was 0, the “Plant response rating, Sugarbeets” value (sugar beet; [6]) was 0 and the “Plant response rating, Soybean” value (soybean; [1]) was 1. The “Soybean plant response rating” value (soybean; [2]) was 0, the “Soybean plant response rating (0 to 10 scale)” value (soybean; Preemergence, Rate 125 g/ha) was 0 and the “Soybean plant response rating” value (soybean; [3]) was 0. The “Soybean plant response rating” value (soybean; [4]) was 0, the “Soybean plant response rating” value (soybean; [5]) was 1 and the “Plant response rating, Soybean” value (soybean; [6]) was 2. For the same molecule, the “Plant response rating, Velvetleaf” value (velvetleaf; [1]) was 0, the “Velvetleaf plant response rating” value (velvetleaf; [2]) was 0 and the “Velvetleaf plant response rating (0 to 10 scale)” value (velvetleaf; Preemergence, Rate 125 g/ha) was 0. The “Velvetleaf plant response rating” value (velvetleaf; [3]) was 0, the “Velvetleaf plant response rating” value (velvetleaf; [4]) was 0 and the “Velvetleaf plant response rating” value (velvetleaf; [5]) was 0. For the same molecule, the “Plant response rating, Velvetleaf” value (velvetleaf; [6]) was 0, the “Plant response rating, Blackgrass” value (blackgrass; [1]) was 0 and the “Blackgrass plant response rating” value (blackgrass; [2]) was 0. For the same molecule, the “Blackgrass plant response rating (0 to 10 scale)” value (blackgrass; Preemergence, Rate 125 g/ha) was 0, the “Blackgrass plant response rating” value (blackgrass; [3]) was 2 and the “Blackgrass plant response rating” value (blackgrass; [4]) was 3. For the same molecule, the “Blackgrass plant response rating” value (blackgrass; [5]) was 0, the “Plant response rating, Blackgrass” value (blackgrass; [11]) was 0 and the “Plant response rating, Blackgrass” value (blackgrass; [6]) was 0. For the same molecule, the “Plant response rating, Corn” value (corn; [1]) was 0, the “Corn plant response rating” value (corn; [2]) was 0 and the “Corn plant response rating (0 to 10 scale)” value (corn; Preemergence, Rate 125 g/ha) was 0. For the same molecule, the “Corn plant response rating” value (corn; [3]) was 0, the “Corn plant response rating” value (corn; [4]) was 0 and the “Corn plant response rating” value (corn; [5]) was 0. For the same molecule, the “Plant response rating, Corn” value (corn; [6]) was 0, the “Plant response rating, Rape” value (rape; [1]) was 0 and the “Rape plant response rating” value (rape; [2]) was 0. For the same molecule, the “Rape plant response rating (0 to 10 scale)” value (rape; Preemergence, Rate 125 g/ha) was 0, the “Rape plant response rating” value (rape; [3]) was 0 and the “Rape plant response rating” value (rape; [4]) was 0. The “Rape plant response rating” value (rape; [5]) was 0, the “Plant response rating, Rape” value (rape; [6]) was 0 and the “Plant response rating, Redroot pigweed” value (pigweed; [1]) was 0. The “Redroot pigweed plant response rating” value (pigweed; [2]) was 0, the “Redroot pigweed plant response rating (0 to 10 scale)” value (pigweed; Preemergence, Rate 125 g/ha) was 0 and the “Redroot pigweed plant response rating” value (pigweed; [3]) was 0. The “Redroot pigweed plant response rating” value (pigweed; [4]) was 0, the “Redroot pigweed plant response rating” value (pigweed; [5]) was 0 and the “Plant response rating, Redroot pigweed” value (pigweed; [6]) was 0.
